System in one data set: not listed separately
In words: Preliminary pharmacokinetic testing in ICR mice (gavage 5 mg/kg, intravenous 1 mg/kg). It is filed as in vivo. Particulars: male, mouse, oral administration (5 mg/kg), plasma. How it is done: 1. 6 healthy ICR mice, male, weighing 30-35 g, were randomly divided into 2 groups with 3 mice in each group. The tested compound was administered by gavage (5 mg/kg) and intravenous injection (1 mg/kg), respectively:
Feeding uniformly 4 hours after administration.
The term AUC(0-t) denotes exposure summed from dosing to a finite time, without extrapolation to infinity. Read a low AUC(0-t) as low exposure. `COc1ccc2c(Oc3ccc(CC(=O)NO)cc3)ccnc2n1` [Compound 2, N-hydroxy-2-(4-((7-methoxy-1,8-naphthylidin-4-yl)oxy)phenyl)acetamide] registered an AUC(0-t) of 619 ng·h/mL.

Still in this data set, the particulars now being: male, mouse, plasma, po, 5 mg/kg, read-out: oral bioavailability.
The bioavailability is the share of a dose that reaches the circulation, judged against a reference dose that is usually intravenous. Consider `COc1ccc2c(Oc3ccc(CC(=O)NO)cc3)ccnc2n1` [Compound 2, N-hydroxy-2-(4-((7-methoxy-1,8-naphthylidin-4-yl)oxy)phenyl)acetamide], for which the bioavailability was > 20%.

The same data set, now with this note: oral administration (5 mg/kg), plasma.
As a reminder, the Cmax is the maximum level reached in the sampled fluid or tissue. For `COc1ccc2c(Oc3ccc(CC(=O)NO)cc3)ccnc2n1` [Compound 2, N-hydroxy-2-(4-((7-methoxy-1,8-naphthylidin-4-yl)oxy)phenyl)acetamide], the Cmax came to 736 ng/mL and the T1/2 amounted to 3.26 h.

For another data set, the target named is ENPP1 (hENPP1-ECD-His) (Homo sapiens (Human), UniProt P22413).
ENPP1 (hENPP1-ECD-His), sequence (P22413 98-925): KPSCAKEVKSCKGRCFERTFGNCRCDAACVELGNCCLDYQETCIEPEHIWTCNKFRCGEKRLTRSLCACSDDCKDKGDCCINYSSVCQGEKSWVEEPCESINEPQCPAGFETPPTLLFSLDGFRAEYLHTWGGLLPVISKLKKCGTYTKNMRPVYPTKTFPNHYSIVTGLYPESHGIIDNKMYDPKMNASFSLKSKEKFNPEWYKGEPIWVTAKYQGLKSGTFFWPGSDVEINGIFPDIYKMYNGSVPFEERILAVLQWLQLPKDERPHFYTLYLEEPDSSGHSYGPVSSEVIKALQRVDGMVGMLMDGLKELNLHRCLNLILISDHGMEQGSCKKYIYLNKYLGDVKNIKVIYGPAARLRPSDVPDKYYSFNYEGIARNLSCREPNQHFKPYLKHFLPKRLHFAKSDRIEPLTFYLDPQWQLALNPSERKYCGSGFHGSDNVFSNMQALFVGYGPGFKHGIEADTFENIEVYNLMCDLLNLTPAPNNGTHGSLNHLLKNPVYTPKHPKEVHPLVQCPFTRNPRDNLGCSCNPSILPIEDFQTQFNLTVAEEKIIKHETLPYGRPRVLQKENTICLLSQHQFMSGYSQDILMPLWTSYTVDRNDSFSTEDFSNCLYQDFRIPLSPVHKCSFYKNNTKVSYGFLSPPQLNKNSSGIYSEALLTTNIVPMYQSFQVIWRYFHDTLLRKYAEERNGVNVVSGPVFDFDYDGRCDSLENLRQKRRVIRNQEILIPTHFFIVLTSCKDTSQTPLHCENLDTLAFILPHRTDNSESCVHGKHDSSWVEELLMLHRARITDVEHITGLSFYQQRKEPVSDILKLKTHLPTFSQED
Assay: not given
Details: not given
What is called IC50 is the point on the concentration scale where inhibition reaches its midpoint. The low end stands for greater potency, the high end for weaker potency. For `COc1ccc2c(NC3CCN(C(C)(C)C(=O)NO)CC3)ccnc2n1` [Compound 117], the concentration for half-maximal inhibition (IC50) is 2.1 nM.
Turning to `COc1ccc2c(Nc3cnn(C(C)(C)C(=O)NO)c3)ccnc2n1` [Compound 118], the IC50 was found to be 1.5 nM.
Still for that read-out and setting: next, `COc1cc2nccc(Oc3ccc(C4(C(=O)NO)CCCC4)cc3)c2cn1` [Compound 123]: 1.2 nM.
Still for that read-out and setting: next, `CCC(CC)(C(=O)NO)c1ccc(Oc2ccnc3nc(OC)ccc23)cc1` [Compound 124]: 1.6 nM; `COc1cc(Nc2ncnc3c2cnn3C)ccc1C(C)(C)C(=O)NO` [Compound 126]: 21 nM.
Compound `COc1ccc2c(Nc3ccc(C(C)(C)C(=O)NO)nc3)ccnc2n1` [Compound 127] displayed an IC50 of 1.6 nM.
The compound `Cn1ncc2c(Oc3ccc(C4(C(=O)NO)CCCC4)cc3)ccnc21` [Compound 129] showed an IC50 of 5.7 nM.
The same measure, in the same setting: next, `COc1ccc2c(Oc3ccc(C(CC(C)C)C(=O)NO)cc3)ccnc2n1` (stereo not shown) [Compound 132]: 6.6 nM; `COc1ccc2c(Oc3cc(F)c(C4(C(=O)NO)CCOCC4)cc3F)ccnc2n1` [Compound 134]: 3.3 nM; `COc1ccc2c(Oc3ccc(C4(C(=O)NO)CCOCC4)c(Cl)c3)ccnc2n1` [Compound 135]: 7.1 nM.
As for `COc1ccc2c(Oc3ccc(C4(C(=O)NO)CCOCC4)cc3F)ccnc2n1` [Compound 136], the IC50 came out at 4.4 nM.
`COc1ccc2c(Oc3c(F)cc(C4(C(=O)NO)CCOCC4)cc3F)ccnc2n1` [Compound 137] registered an IC50 of 2.6 nM.
On to `COc1ccc2c(Oc3ccc(C4(C(=O)NO)CCOCC4)cc3Cl)ccnc2n1` [Compound 138], for which the IC50 was 6 nM.
Compound `COc1ccc2c(Oc3ccc(C4(C(=O)NO)CCOCC4)c(C)c3)ccnc2n1` [Compound 139] yielded an IC50 of 2.3 nM.
Compound `COc1ccc2c(Cc3ccc(C4(C(=O)NO)CCCC4)cc3)ccnc2n1` [Compound 141, N-hydroxy-1-(4-((7-methoxy-1,8-naphthylidin-4-yl)methyl)phenyl)cyclopentane-1-formamide] showed an IC50 of 1.4 nM.
Turning to `COc1ccc2c(NC3CCC(CC(=O)NO)C3)ccnc2n1` (stereo not shown) [Compound 142], the IC50 turned out to be 13 nM.
On to `COc1ccc2c(NC3CCN(CC(=O)NO)C3)ccnc2n1` (stereo not shown) [Compound 143], for which the IC50 stood at 4.7 nM. This IC50 is about 2.8-fold lower than that of the compound before.
The compound `COc1ccc2c(NC3CCN(C(C)(C)C(=O)NO)C3)ccnc2n1` (stereo not shown) [Compound 144] came in with an IC50 of 259 nM.
`COc1ccc2c(Oc3ccc4c(c3)CCCC4C(=O)NO)ccnc2n1` (stereo not shown) [Compound 145] registered an IC50 of 4.2 nM.
Same read-out and setting: next, `COc1ccc2c(Oc3ccc(C4(C(=O)NO)CCN(C)CC4)cc3)ccnc2n1` [Compound 146]: 13 nM.
Compound `COc1ccc2c(Nc3ccc(C(C)(C)C(=O)NO)cc3)cnnc2c1` [Compound 147] returned an IC50 of 1.5 nM.
On to `COc1ccc2c(Oc3ccc(C(N)C(=O)NO)cc3)ccnc2n1` (stereo not shown) [Compound 148], for which the concentration for half-maximal inhibition (IC50) was found to be 2.8 nM.
In turn, `COc1ccc2c(Oc3ccc(C(C(=O)NO)C(C)C)c(F)c3)ccnc2n1` (stereo not shown) [Compound 150] registered an IC50 of 7.2 nM.
The compound `COc1ccc2c(Nc3ncc(CC(=O)NO)cn3)ccnc2n1` [Compound 151] displayed an IC50 of 70 nM.
`COc1ccc2c(CN3CCC(C(C)(C)C(=O)NO)C3)ccnc2n1` (stereo not shown) [Compound 157] showed an IC50 of 81 nM.
Compound `COc1ccc2c(N3CCc4cc(C5(C(=O)NO)CCOCC5)ccc43)ccnc2n1` [Compound 158] showed an IC50 of 9.9 nM.
With `COc1ccc2c(Nc3ccc(C(C(=O)NO)C(C)C)c(F)c3)ccnc2n1` (stereo not shown) [Compound 160], the IC50 came out at 15 nM.
With `COc1ccc2c(Nc3ccc(C(C(=O)NO)C(C)C)cc3)ccnc2n1` (stereo not shown) [Compound 161], inhibition was half-maximal at 16 nM (IC50).
The compound `COc1ccc2c(Nc3ccc(C4(C(=O)NO)CCOCC4)c(F)c3)ccnc2n1` [Compound 162] registered an IC50 of 3 nM. Compared with the last compound, the IC50 is about 5.3-fold lower.
The same measure, in the same setting: next, `CCn1ncc2c(Nc3ccc(C4(C(=O)NO)CCOCC4)cc3)ccnc21` [Compound 163]: 2.9 nM; `COc1ccc2c(Nc3ccc(C4(C(=O)NO)CCOCC4)cc3)ccnc2c1` [Compound 164]: 3.4 nM.
The same measure, in the same setting: next, `COc1ccc2c(Nc3cnn(C(C(=O)NO)C(C)C)c3)ccnc2n1` (stereo not shown) [Compound 167]: 103 nM; `COc1ccc2c(Oc3ccc(C(C(=O)NO)C4CCCC4)cc3)ccnc2n1` (stereo not shown) [Compound 170]: 18 nM.
`COc1ccc2c(Cc3ccc(C4(C(=O)NO)CCOCC4)cc3)ccnc2n1` [Compound 171] returned an IC50 of 1.8 nM.
`COc1ccc2c(Oc3ccc(C(C)(C(=O)NO)C4CCOCC4)cc3)ccnc2n1` (stereo not shown) [Compound 172]: the half-inhibitory concentration (IC50) amounted to 3.1 nM.
Consider `COc1ccc2c(Oc3ccc(C4(C(=O)NO)CCN(Cc5ccccc5)CC4)cc3)ccnc2n1` [Compound 173], for which the IC50 was found to be 1.6 nM.
The same measure, in the same setting: under `COc1ccc2c(Nc3cnn(C4(C(=O)NO)CCOCC4)c3)ccnc2n1` [Compound 174] stands 2.1 nM.
Compound `COc1ccc2c(Oc3ccc(C4(C(=O)NO)CCCOCC4)cc3)ccnc2n1` (stereo not shown) [Compound 175] registered an IC50 of 1.9 nM.
Take `COc1ccc2c(Oc3ccc(C4(C(=O)NO)CC5CCC(C4)O5)cc3)ccnc2n1` (stereo not shown) [Compound 176]: half-maximal inhibition (IC50) was put at 2.9 nM.
On to `COc1cc2nccc(Nc3ccc(C(C(=O)NO)C(C)C)cc3)c2cn1` (stereo not shown) [Compound 177], for which half-maximal inhibition (IC50) was put at 7.9 nM.
`COc1cc2nccc(Nc3ccc(C4(C(=O)NO)CCOCC4)cc3F)c2cn1` [Compound 178] displayed an IC50 of 1.2 nM. This IC50 lies about 6.6-fold lower than the previous one.
Regarding `COc1cc2nccc(Nc3ccc(C(CC(C)C)C(=O)NO)cc3)c2cn1` (stereo not shown) [Compound 179], the IC50 was found to be 1 nM. The IC50 values of the last two compounds are within 1.5-fold of each other.
On the same count and under the same terms, next, `COc1ccc2c(Nc3ccc(C4(C(=O)NO)CCOCC4)cc3)c(C#N)cnc2c1` [Compound 180]: 1.6 nM; `COc1cc2nccc(Nc3ccc(C4(C(=O)NO)CCOCC4)c(F)c3)c2cn1` [Compound 181]: 1.9 nM.
Same read-out and setting: next, `COc1ccc2c(Nc3ccc(C(CC(C)C)C(=O)NO)cc3)ccnc2n1` (stereo not shown) [Compound 182]: 1.7 nM.
Still for that read-out and setting: next, `COc1cc2nccc(Nc3c(F)cc(C(CC(C)C)C(=O)NO)cc3F)c2cn1` (stereo not shown) [Compound 184]: 2.2 nM; `COc1cc2nccc(Nc3c(F)cc(C(C(=O)NO)C(C)C)cc3F)c2cn1` (stereo not shown) [Compound 185]: 3.6 nM; `COc1cc2nccc(Nc3cc(F)c(C(CC(C)C)C(=O)NO)c(F)c3)c2cn1` (stereo not shown) [Compound 186]: 3.8 nM.
For the compound `COc1cc2ncnc(Nc3ccc(C(C(=O)NO)C(C)C)cc3)c2cn1` (stereo not shown) [Compound 187], the IC50 amounted to 27 nM.
On the same count and under the same terms, under `COc1cc2ncnc(Nc3ccc(C(CC(C)C)C(=O)NO)cc3)c2cn1` (stereo not shown) [Compound 188] stands 4.6 nM; under `COc1cc2nccc(Nc3ccc(CC(=O)NO)c(F)c3)c2cn1` [Compound 189], 1.8 nM.
Turning to `COc1cc2nccc(Nc3ccc(CC(=O)NO)cc3F)c2cn1` [Compound 190], 3.9 nM corresponded to half-maximal inhibition (IC50).
As for `COc1cc2nccc(Nc3cc(F)c(C(C(=O)NO)C(C)C)c(F)c3)c2cn1` (stereo not shown) [Compound 191], half-maximal inhibition (IC50) required 11 nM.
Still for that read-out and setting: under `CCn1ncc2c(Nc3ccc(CC(=O)NO)cc3F)ccnc21` [Compound 192] stands 1.4 nM; under `CCn1ncc2c(Nc3ccc(CC(=O)NO)c(F)c3)ccnc21` [Compound 193], 2.2 nM; under `Cc1noc2ncnc(Oc3ccc(C(C)(C)C(=O)NO)cc3)c12` [Compound 194, N-hydroxy-2-methyl-2-(4-((3-methylisoxazol[5,4-d]pyrimidin-4-yl)oxy)phenyl)propanamide], 284 nM.
Take `COc1ccc2c(Oc3ccc(N4CCC[C@H]4C(=O)NO)cc3)ccnc2n1` [Compound 196, (S)—N-hydroxy-1-(4-((7-methoxy-1,8-naphthylidin-4-yl)oxy)phenyl)pyrrolidin-2-formamide]: half-maximal inhibition (IC50) was put at 130 nM.
Take `Cn1ncc2c(Oc3ccc(C4(C(=O)NO)CCOCC4)c(Cl)c3)ccnc21` [Compound 197]: inhibition was half-maximal at 111 nM (IC50).
Take `COc1ccc2c(Oc3ccc([C@@H](C(=O)NO)C4CCOCC4)c(F)c3)ccnc2n1` [Compound 198]: half-maximal inhibition (IC50) required 61 nM.
As to `COc1ccc2c(Oc3ccc(C(CC(C)C)C(=O)NO)c(F)c3)ccnc2n1` (stereo not shown) [Compound 201], the IC50 came out at 11 nM.
The same measure, in the same setting: under `COc1ccc2c(N[C@H]3CCN(C(C)(C)C(=O)NO)C3)ccnc2n1` [Compound 202] stands 3.3 nM; under `COc1ccc2c(Oc3ccc4c(c3)CCCC4(C)C(=O)NO)ccnc2n1` (stereo not shown) [Compound 203], 1.8 nM.
Compound `COc1ccc2c(N3CCc4cc(CC(=O)NO)ccc43)ccnc2n1` [Compound 204] showed an IC50 of 24 nM.
On to `COc1ccc2c(O[C@H]3CCN(C(C)(C)C(=O)NO)C3)ccnc2n1` [Compound 205], for which the IC50 was 39 nM.
The compound `COc1ccc2c(Oc3ccc([C@H](C(=O)NO)C4CCOCC4)c(F)c3)ccnc2n1` [Compound 206] showed an IC50 of 12 nM.
Still for that read-out and setting: next, `Cn1ncc2c(Nc3ccc(C4(C(=O)NO)CCOCC4)cc3)ncnc21` [Compound 207]: 9.3 nM.
In turn, `COc1ccc2c(Nc3ccc(CC(=O)NO)cc3)ncnc2n1` [Example 1, N-hydroxy-2-(4-((7-methoxypyridino[2,3-d]pyrimidin-4-yl)amino)phenyl)acetamide] yielded an IC50 of 1.8 nM. Against the preceding compound, the IC50 is about 5.2-fold lower.
Consider `COc1cc2nccc(Nc3ccc(CC(=O)NO)cc3)c2cc1OC` [Example A-1, reference compound], for which the midpoint of inhibition, the IC50, lay at 89 nM.
`CONC(=O)C(C)(C)c1ccc(Oc2ccnc3cc(OC)c(OC)cc23)cc1` [Example A-2, reference compound] displayed an IC50 of 3280 nM. This IC50 is about 37-fold higher than that of the compound before.
